Assay results taken from publication PMC3815585 (European journal of medicinal chemistry, 2008).

Key:
[1] = system: T.b.r. strain STIB900; assay: STIB900 acute mouse model for African trypanosomiasis; format: in vivo
[2] = system: Poly(d(A-T))2; assay: DNA thermal melting; format: binding; conditions: from ΔTm values; for Reduction in DNA affinity: compared within the bis-guanidine series
[3] = system: Trypanosoma brucei rhodesiense (T.b.r.) strain STIB900; format: cell-based; conditions: RHODESIENSE|STIB900, read-out: T.b.r. IC50

With CNC(=N)Nc1ccc(-c2ccc(-c3ccc(NC(=N)NC)cn3)cc2)nc1 [9d, 1,4-Bis-[5′-(N′-methylguanidino)-pyridin-2′-yl]-phenylene] the “Acute toxicity in treated mice” value ([1]; 20 mg/kg ip) was “showed acute toxicity” and the “Cures (mice that survived 60 days and are parasite-free)” value ([1]; 20 mg/kg ip for 4 days) was “none gave cures”.
N=C(N)Nc1ccc(-c2ccc(-c3ccc(NC(=N)N)cn3)cc2)nc1 [6b, 1,4-Bis-[5′-guanidinopyridin-2′-yl]phenylene] was tested, and the “Reduction in DNA affinity” value [2] was “approximately one third”.
N=C(N)c1ccc(-c2ccc(-c3ccc(C(=N)N)cc3)cc2)cc1 [V] was tested, and the IC50 [3] was 5 nM.
With CCOC(=O)/N=C(\N)Nc1ccc(-c2ccc(-c3ccc(N/C(N)=N/C(=O)OCC)cc3)cc2)cc1 [8a, 4,4″-Bis(N′-ethoxycarbonyl)-guanidino-[1,1′;4′,1″]terphenyl] the “Cures (mice that survived 60 days and are parasite-free)” value ([1]; 25 mg/kg po for 4 days) was “no cures were achieved”.
With N=C(N)Nc1ccc(-c2ccc(-c3ccc(NC(=N)N)cc3)cc2)cc1 [6a, 4,4″-Bis-guanidino-[1,1′;4′,1″]terphenyl] the “Reduction of DNA affinity from that of the corresponding diamidine V” value [2] was “about 20%” and the “Cures (mice that survived 60 days and are parasite-free)” value ([1]; 20 mg/kg ip for 4 days) was “none gave cures”.
With CCOC(=O)/N=C(\NC)Nc1ccc(-c2ccc(-c3ccc(N/C(=N/C(=O)OCC)NC)cc3)cc2)cc1 [8c, 4,4″-Bis(N′-ethoxycarbonyl-N″-methyl)-guanidino-[1,1′;4′,1″]terphenyl] the “Cures (mice that survived 60 days and are parasite-free)” value ([1]; 25 mg/kg po for 4 days) was “no cures were achieved”.
In the case of CNC(=N)Nc1ccc(-c2ccc(-c3ccc(NC(=N)NC)cc3)cc2)cc1 [9c, 4,4″-Bis(N′-methyl)-guanidino-[1,1′;4′,1″]terphenyl], the “Cures (mice that survived 60 days and are parasite-free)” value ([1]; 20 mg/kg ip for 4 days) is reported as “none gave cures”.
CC(C)NC(=N)Nc1ccc(-c2ccc(-c3ccc(NC(=N)NC(C)C)cc3)cc2)cc1 [9e, 4,4″-Bis(N′-isopropyl)-guanidino-[1,1′;4′,1″]terphenyl] was tested, and the “Reduction in DNA affinity” value [2] was “approximately one third”.
